Series [1] in a line: Therapeutic index for anti-HIV activity against HIV-IIIB in CEM-SS cells. In kind it is cell-based.
Series [2] relates to MRC5. Briefly: Cytotoxic dose for anti-HCMV activity against AD-169 strain in MRC-5 cells. In kind it is functional. The note with it: Homo sapiens, read-out: CD50 (the source's name).
For series [3], the system named is MRC5. Briefly: Inhibitory concentration for anti-HCMV activity against AD-169 strain in MRC-5 cells. In kind it is functional, cell-based. The note with it: Homo sapiens.
Series [4] is described as follows: Therapeutic index for anti-HCMV activity against AD-169 strain in MRC-5 cells. In kind it is cell-based. To be noted: human, mrc5.

`CCN(CC)C(=S)[S][Na]` [DITIOCARB SODIUM]: the TI in series [1] was above 67.

The term IC50 denotes the concentration at which inhibition is half-maximal. Low values mean greater potency, high ones weaker potency. As to `Nc1nc(O)c2ncn(COC(CO)CO)c2n1` [GANCICLOVIR], the CC50 in the series on MRC5 [2] was above 125 µM. The same compound showed a 50% inhibitory concentration (IC50) in the series with MRC5 [3] of 6.3 µM. Besides, the TI in series [4] is above 20.

Values taken from ChEMBL document CHEMBL1131418, “Antiviral oligo- and polyribonucleotides containing selected triazolo[2,3-a]purines” (J Med Chem, 1998).
